# Laboratory results: paper PMC9114115, “Property space mapping of Pseudomonas aeruginosa permeability to small molecules” (Scientific Reports, 2022)
# Several values for one entry are separate records, joined by “and”; a condition that tells them apart may be missing. Equal entries are not always repeated.
# Test system: P. aeruginosa PAO1-Pore cells
# Test: LC–MS quantification of intracellular accumulation, PAO1-Pore;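 further: slope of accumulation versus external concentration fitted as a line through zero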
# Settings: 1 min incubation, 10-80 µM
# Description: (§1) PAO1-Pore and PΔ3-Pore were grown at 37 °C overnight with shaking at 225 rpm in 50 mM MOPS-M9 (pH 7.2) Minimal Medium supplemented with 1% glycerol[42],[43].
# (§2) The next day, cells were sub-cultured (1.5:100) in fresh MOPS-M9 medium and grown for 16 h. The cultures were then split into two flasks and one of them was induced with 0.1 mM IPTG. Cells incubated for additional 4 h until OD600 reached ~ 1.0 and harvested by centrifugation at 3,275xg for 20 min in RT, washed and concentrated 10X in the spent medium. Assays were performed in 96-well plates in a final volume of […]. Cells were incubated with 10, 20, 40, 80 µM of compounds and after 1- and 40-min incubation at RT, 100 µL cell aliquots were collected by vacuum filtration onto 1.0 µm Glass Fiber Type B filters. For no-cell controls, compounds were diluted to 10, 20, 40, 80 µM final concentration in the same medium, incubated for 1 min and 40 min and filtered onto the same plates. The cell loaded and cell-free filters were dried, removed from plates and placed into 100% methanol at -80 °C for at least 10 min. Filter-bound material was extracted by water bath sonication for 1 min. Cell and filter debris were separated by ultracentrifugation at 45,000 rpm (TLA55 rotor, Beckman) for 8 min at 16 °C and the pellet re-extracted with 80% methanol in water by sonication for 15 min followed by ultracentrifugation at the same conditions. Supernatants from two extractions were combined. For the compound quantification, 5 µL of solution was analyzed in triplicate.
# (§3) Calibration curves for MS analyses of compounds were generated in the same experiment by mixing compound at increasing concentrations with the sonicated PAO1 cell extracts. […] Azithromycin was used as a positive control in all experiments.
# (§4) Samples were processed in positive ion mode. An Eclipse plus C18 Rapid Resolution HD column (1.8 μm, 2.1 × 50 mm, Agilent, USA) was used for separation. The flow rate was 0.6 mL/min using the following gradient: 0 to 1 min (0- 20% ACN), 1 to 4 min (20- 80% ACN), 4 to 5.1 min (80–100% ACN), 5.1 to 6.30 (100% ACN). Solvents contained 0.1% formic acid to promote positive ion formation in the electrospray. […] Data were analyzed using Agilent Masshunter workstation quantitative analysis v. B.10 software.
row,Structure (SMILES),"Concentration slopes of accumulation, PAO1-Pore_1 min"
1,"COc1c(N2CCNC(C)C2)c(F)cc2c(=O)c(C(=O)O)cn(C3CC3)c12 (stereo not drawn) [OU-0000623, GATIFLOXACIN]",2.29

# Same assay, conditions: 40 min incubation, 10-80 µM
row,Structure (SMILES),"Concentration slopes of accumulation, PAO1-Pore_40 min"
1,"COc1c(N2CCNC(C)C2)c(F)cc2c(=O)c(C(=O)O)cn(C3CC3)c12 (stereo not drawn) [OU-0000623, GATIFLOXACIN]",4.14

# Test system: P. aeruginosa PΔ3 cells;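 further: slope of accumulation versus external concentration fitted as a line through zero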
# Test: not given
# Settings: 1 min incubation, 10-80 µM
# Description: as §1, §2, §3, §4
row,Structure (SMILES),"Concentration slopes of accumulation, PΔ3_1 min"
1,"COc1c(N2CCNC(C)C2)c(F)cc2c(=O)c(C(=O)O)cn(C3CC3)c12 (stereo not drawn) [OU-0000623, GATIFLOXACIN]",1.11

# Same assay, conditions: 40 min incubation, 10-80 µM
row,Structure (SMILES),"Concentration slopes of accumulation, PΔ3_40 min"
1,"COc1c(N2CCNC(C)C2)c(F)cc2c(=O)c(C(=O)O)cn(C3CC3)c12 (stereo not drawn) [OU-0000623, GATIFLOXACIN]",4.13

# Test system: P. aeruginosa PAO1 cells
# Test: LC–MS quantification of intracellular accumulation, PAO1;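 further: slope of accumulation versus external concentration fitted as a line through zero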
# Settings: 1 min incubation, 10-80 µM
# Description: as §1, §2, §3, §4
row,Structure (SMILES),"Concentration slopes of accumulation, PAO1_1 min"
1,"COc1c(N2CCNC(C)C2)c(F)cc2c(=O)c(C(=O)O)cn(C3CC3)c12 (stereo not drawn) [OU-0000623, GATIFLOXACIN]",1.47

# Same assay, conditions: 40 min incubation, 10-80 µM
row,Structure (SMILES),"Concentration slopes of accumulation, PAO1_40 min"
1,"COc1c(N2CCNC(C)C2)c(F)cc2c(=O)c(C(=O)O)cn(C3CC3)c12 (stereo not drawn) [OU-0000623, GATIFLOXACIN]",6.10

# Test system: P. aeruginosa
# Test: not given
# Settings: sheet "Good" permeators; all listed compounds are good permeators
# Description: The measured levels of compound accumulation were analyzed using machine learning to determine which features of the compounds are most important for enabling their cellular accumulation and to determine their optimal values. […] To accentuate the permeability aspect, the accumulation slopes in efflux-deficient and hyperporinated strains were normalized to those in the parental PAO1 strain.
# To help visualize the data, we performed a principal component (PC) decomposition of the data.
row,Structure (SMILES),"Cluster of the identified ""good"" permeators"
1,"COc1c(N2CCNC(C)C2)c(F)cc2c(=O)c(C(=O)O)cn(C3CC3)c12 (stereo not drawn) [OU-0000623, GATIFLOXACIN]",1

# Test system: P. aeruginosa PAO1-Pore
# Test: MIC by two-fold dilution, hyperporinated PAO1-Pore
# Type: cell-based, Pseudomonas aeruginosa
# Settings: PAO1-Pore, LB broth, Table S2
# Description: (§5) In all experiments, P. aeruginosa PAO1-Pore (PAO1 attTn7::PLAC-fhuA) and PΔ3-Pore (ΔmexAB ΔmexCD ΔmexXY attTn7::PLAC-fhuA) strains were used[29]. Strains were routinely grown in Luria–Bertani (LB) or MOPS-M9 medium at 37 °C with aeration. MICs shown in Tables 1 and 2 were determined by a two-fold dilution method in LB broth and MOPS-M9 medium, respectively, following the previously described protocol.
row,Structure (SMILES),MICs
1,"COc1c(N2CCNC(C)C2)c(F)cc2c(=O)c(C(=O)O)cn(C3CC3)c12 (stereo not drawn) [OU-0000623, GATIFLOXACIN]",0.25

# Same assay, conditions: Pseudomonas aeruginosa, PAO1, read-out: MICs
row,Structure (SMILES),MIC
1,"COc1c(N2CCNC(C)C2)c(F)cc2c(=O)c(C(=O)O)cn(C3CC3)c12 (stereo not drawn) [OU-0000623, GATIFLOXACIN]",0.0625 µM and 0.02 µg/mL

# Test system: P. aeruginosa PΔ3
# Test: microbe, parasite or virus in culture
# Type: cell-based, Pseudomonas aeruginosa
# Settings: Pseudomonas aeruginosa, read-out: MICs
# Description: as §5
row,Structure (SMILES),MIC
1,"COc1c(N2CCNC(C)C2)c(F)cc2c(=O)c(C(=O)O)cn(C3CC3)c12 (stereo not drawn) [OU-0000623, GATIFLOXACIN]",0.5 µM and 0.2 µg/mL

# Test system: P. aeruginosa PΔ3-Pore
# Test: MIC by two-fold dilution, barrierless PΔ3-Pore
# Type: cell-based, Pseudomonas aeruginosa
# Settings: Pseudomonas aeruginosa, read-out: MICs, P∆3-Pore, MOPS-M9 medium
# Description: as §5
row,Structure (SMILES),MIC
1,"COc1c(N2CCNC(C)C2)c(F)cc2c(=O)c(C(=O)O)cn(C3CC3)c12 (stereo not drawn) [OU-0000623, GATIFLOXACIN]",0.031 µM and 0.01 µg/mL

# Same assay, conditions: P∆3-Pore, LB broth, Table S2
row,Structure (SMILES),MICs
1,"COc1c(N2CCNC(C)C2)c(F)cc2c(=O)c(C(=O)O)cn(C3CC3)c12 (stereo not drawn) [OU-0000623, GATIFLOXACIN]",0.0039

# Test system: P. aeruginosa PΔ3-Pore cells
# Test: LC–MS quantification of intracellular accumulation, PΔ3-Pore;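 further: slope of accumulation versus external concentration fitted as a line through zero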
# Settings: 1 min incubation, 10-80 µM
# Description: as §1, §2, §3, §4
row,Structure (SMILES),"Concentration slopes of accumulation, PΔ3-Pore_1 min"
1,"COc1c(N2CCNC(C)C2)c(F)cc2c(=O)c(C(=O)O)cn(C3CC3)c12 (stereo not drawn) [OU-0000623, GATIFLOXACIN]",1.90

# Same assay, conditions: 40 min incubation, 10-80 µM
row,Structure (SMILES),"Concentration slopes of accumulation, PΔ3-Pore_40min"
1,"COc1c(N2CCNC(C)C2)c(F)cc2c(=O)c(C(=O)O)cn(C3CC3)c12 (stereo not drawn) [OU-0000623, GATIFLOXACIN]",5.45

# Test system: P. aeruginosa PAO1
# Test: MIC by two-fold dilution, wild type PAO1
# Type: cell-based, Pseudomonas aeruginosa
# Settings: Pseudomonas aeruginosa; PAO1, MOPS-M9 medium; read-out: MICs
# Description: as §5
row,Structure (SMILES),MIC
1,"COc1c(N2CCNC(C)C2)c(F)cc2c(=O)c(C(=O)O)cn(C3CC3)c12 (stereo not drawn) [OU-0000623, GATIFLOXACIN]",2 µM and 0.8 µg/mL
